Tested on: CD8+ T cells
Test: In vitro immunogenicity of HLA-A*24 peptides (CD8+ T-cell priming with aAPCs, multimer staining)
Format: cell-based, human
Method: In order to obtain information regarding the immunogenicity of the TUMAPs of the present invention, the inventors performed investigations using an in vitro T-cell priming assay based on repeated stimulations of CD8+ T cells with artificial antigen presenting cells (aAPCs) loaded with peptide/MHC complexes and anti-CD28 antibody.
Generation of pMHC/anti-CD28 coated beads, T-cell stimulations and readout was performed in a highly defined in vitro system using four different pMHC molecules per stimulation condition and 8 different pMHC molecules per readout condition.
The purified co-stimulatory mouse IgG2a anti human CD28 Ab 9.3 (Jung et al., 1987) was chemically biotinylated using Sulfo-N-hydroxysuccinimidobiotin as recommended by the manufacturer (Perbio, Bonn, Germany). Beads used were 5.6 μm diameter streptavidin coated polystyrene particles (Bangs Laboratories, Illinois, USA).
800.000 beads/200 μl were coated in 96-well plates in the presence of 4×12.5 ng different biotin-pMHC, washed and 600 ng biotin anti-CD28 were added subsequently in a volume of 200 μl. Stimulations were initiated in 96-well plates by co-incubating 1×10^6 CD8+ T cells with 2×10^5 washed coated beads in 200 μl TCM supplemented with 5 ng/ml IL-12 (PromoCell) for 3 days at 37° C. Half of the medium was then exchanged by fresh TCM supplemented with 80 U/ml IL-2 and incubating was continued for 4 days at 37° C. This stimulation cycle was performed for a total of three times. For the pMHC multimer readout using 8 different pMHC molecules per condition, a two-dimensional combinatorial coding approach was used as previously described (Andersen et al., 2012) with minor modifications encompassing coupling to 5 different fluorochromes. Finally, multimeric analyses were performed by staining the cells with Live/dead near IR dye (Invitrogen, Karlsruhe, Germany), CD8-FITC antibody clone SK1 (BD, Heidelberg, Germany) and fluorescent pMHC multimers. For analysis, a BD LSRII SORP cytometer equipped with appropriate lasers and filters was used. Peptide specific cells were calculated as percentage of total CD8+ cells. Evaluation of multimeric analysis was done using the FlowJo software (Tree Star, Oregon, USA). In vitro priming of specific multimer+CD8+ lymphocytes was detected by comparing to negative control stimulations.
Exemplary flow cytometry results after TUMAP-specific multimer staining for 3 peptides of the invention are shown in FIGS. 3A-3E together with corresponding negative controls.

## RYISPDQLADL (listed as Homo sapiens) [SEQ ID No. 47]
  in vitro immunogenicity: donors: +++ (50%-69% = +++)
  in vitro immunogenicity: wells: + (<20% = +)

## RYLEKFYGL (listed as Homo sapiens) [SEQ ID No. 26]
  in vitro immunogenicity: donors: ++++ (>= 70% = ++++)
  in vitro immunogenicity: wells: + (<20% = +)

## COL6A3-001 (SYLQAANAL; listed as Homo sapiens)
  in vitro immunogenicity: donors: ++ (20%-49% = ++)
  in vitro immunogenicity: wells: + (<20% = +)

## FKBP10-002 (TYIGQGYII; listed as Homo sapiens)
  in vitro immunogenicity: donors: ++++ (>= 70% = ++++)
  in vitro immunogenicity: wells: + (<20% = +)

## KLRD-001 (QYLFPSFETF; listed as Homo sapiens)
  in vitro immunogenicity: donors: ++++ (>= 70% = ++++)
  in vitro immunogenicity: wells: + (<20% = +)

## RBPJ-001 (RYLHVEGGNF; listed as Homo sapiens)
  in vitro immunogenicity: donors: ++ (20%-49% = ++)
  in vitro immunogenicity: wells: + (<20% = +)

## LYQILQGIVF (listed as Homo sapiens) [SEQ ID No. 161]
  in vitro immunogenicity: donors: ++++ (>= 70% = ++++)
  in vitro immunogenicity: wells: + (<20% = +)

## DYR-001 (VYTZIQSRF; listed as Homo sapiens)
  in vitro immunogenicity: donors: ++ (20%-49% = ++)
  in vitro immunogenicity: wells: + (<20% = +)

## FAM83A-001 (PFLQASPHF; listed as Homo sapiens)
  in vitro immunogenicity: donors: ++++ (>= 70% = ++++)
  in vitro immunogenicity: wells: ++ (20%-49% = ++)

## GLS-001 (DYIPQLAKF; listed as Homo sapiens)
  in vitro immunogenicity: donors: ++++ (>= 70% = ++++)
  in vitro immunogenicity: wells: + (<20% = +)

## COL6A3-012 (RYPPPVREF; listed as Homo sapiens)
  in vitro immunogenicity: donors: ++++ (>= 70% = ++++)
  in vitro immunogenicity: wells: ++ (20%-49% = ++)

## COL12A1-003 (SYSIGIANF; listed as Homo sapiens)
  in vitro immunogenicity: donors: ++++ (>= 70% = ++++)
  in vitro immunogenicity: wells: + (<20% = +)

## TTC13-001 (RYLEYFEKI; listed as Homo sapiens)
  in vitro immunogenicity: donors: ++++ (>= 70% = ++++)
  in vitro immunogenicity: wells: +++ (50%-69% = +++)

## KFLEHTNFEF (listed as Homo sapiens) [SEQ ID No. 39]
  in vitro immunogenicity: donors: ++ (20%-49% = ++)
  in vitro immunogenicity: wells: + (<20% = +)

## RFMDGHITF (listed as Homo sapiens) [SEQ ID No. 25]
  in vitro immunogenicity: donors: ++ (20%-49% = ++)
  in vitro immunogenicity: wells: + (<20% = +)

## G2E-002 (LYINKANIW; listed as Homo sapiens)
  in vitro immunogenicity: donors: ++ (20%-49% = ++)
  in vitro immunogenicity: wells: + (<20% = +)

## MUC16-001 (TYSEKTTLF; listed as Homo sapiens)
  in vitro immunogenicity: donors: ++ (20%-49% = ++)
  in vitro immunogenicity: wells: + (<20% = +)

## XPR-001 (VYPLALYGF; listed as Homo sapiens)
  in vitro immunogenicity: donors: ++++ (>= 70% = ++++)
  in vitro immunogenicity: wells: ++ (20%-49% = ++)

## ABCA13-003 (EYLPEFLHTF; listed as Homo sapiens)
  in vitro immunogenicity: donors: ++ (20%-49% = ++)
  in vitro immunogenicity: wells: + (<20% = +)

## AIFM2-001 (AYKPGALTF; listed as Homo sapiens)
  in vitro immunogenicity: donors: ++ (20%-49% = ++)
  in vitro immunogenicity: wells: + (<20% = +)

## RYLDSLKAIVF (listed as Homo sapiens) [SEQ ID No. 28]
  in vitro immunogenicity: donors: ++++ (>= 70% = ++++)
  in vitro immunogenicity: wells: + (<20% = +)

## VFMKDGFFYF (listed as Homo sapiens) [SEQ ID No. 34]
  in vitro immunogenicity: donors: ++ (20%-49% = ++)
  in vitro immunogenicity: wells: + (<20% = +)

## HSPBP-001 (RYLEAGAAGLRW; listed as Homo sapiens)
  in vitro immunogenicity: donors: + (<20% = +)
  in vitro immunogenicity: wells: + (<20% = +)

## OLFML2B-001 (YYGNTLVEF; listed as Homo sapiens)
  in vitro immunogenicity: donors: ++++ (>= 70% = ++++)
  in vitro immunogenicity: wells: ++ (20%-49% = ++)

## SLC-003 (RYFPTQALNF; listed as Homo sapiens)
  in vitro immunogenicity: donors: + (<20% = +)
  in vitro immunogenicity: wells: + (<20% = +)

## PSMA4-001 (LYIGWDKHYGF; listed as Homo sapiens)
  in vitro immunogenicity: donors: ++++ (>= 70% = ++++)
  in vitro immunogenicity: wells: + (<20% = +)

## TPS-001 (IYTRVTYYL; listed as Homo sapiens)
  in vitro immunogenicity: donors: ++++ (>= 70% = ++++)
  in vitro immunogenicity: wells: ++ (20%-49% = ++)

## C6orf132-001 (RYGSPINTF; listed as Homo sapiens)
  in vitro immunogenicity: donors: +++ (50%-69% = +++)
  in vitro immunogenicity: wells: + (<20% = +)

## RYTLHINTL (listed as Homo sapiens) [SEQ ID No. 43]
  in vitro immunogenicity: donors: ++ (20%-49% = ++)
  in vitro immunogenicity: wells: + (<20% = +)

## COLEC12-001 (IYAGQWNDF; listed as Homo sapiens)
  in vitro immunogenicity: donors: +++ (50%-69% = +++)
  in vitro immunogenicity: wells: + (<20% = +)

## RASA2-001 (YYVDKLFNTI; listed as Homo sapiens)
  in vitro immunogenicity: donors: ++ (20%-49% = ++)
  in vitro immunogenicity: wells: + (<20% = +)

## ABCC1-001 (VYVTIDENNIL; listed as Homo sapiens)
  in vitro immunogenicity: donors: ++ (20%-49% = ++)
  in vitro immunogenicity: wells: + (<20% = +)

## TYKYVDINTF (listed as Homo sapiens) [SEQ ID No. 159]
  in vitro immunogenicity: donors: +++ (50%-69% = +++)
  in vitro immunogenicity: wells: + (<20% = +)

## KDM6B-001 (RYGGSFAEL; listed as Homo sapiens)
  in vitro immunogenicity: donors: ++ (20%-49% = ++)
  in vitro immunogenicity: wells: + (<20% = +)

## TRIM11-001 (IFLDYEAGHLSF; listed as Homo sapiens)
  in vitro immunogenicity: donors: + (<20% = +)
  in vitro immunogenicity: wells: + (<20% = +)

## SMPDL3B-001 (IYNQIAELW; listed as Homo sapiens)
  in vitro immunogenicity: donors: ++++ (>= 70% = ++++)
  in vitro immunogenicity: wells: ++ (20%-49% = ++)

## ZNF697-001 (TYLTNHLRL; listed as Homo sapiens)
  in vitro immunogenicity: donors: ++++ (>= 70% = ++++)
  in vitro immunogenicity: wells: ++ (20%-49% = ++)

## SP14-001 (AYPDLNEIYRSF; listed as Homo sapiens)
  in vitro immunogenicity: donors: + (<20% = +)
  in vitro immunogenicity: wells: + (<20% = +)

## MREG-001 (RYLFVVDRL; listed as Homo sapiens)
  in vitro immunogenicity: donors: ++++ (>= 70% = ++++)
  in vitro immunogenicity: wells: ++++ (>= 70% = ++++)

## TUBGCP3-001 (FYQGIVQQF; listed as Homo sapiens)
  in vitro immunogenicity: donors: ++ (20%-49% = ++)
  in vitro immunogenicity: wells: + (<20% = +)

Reference: patent US10526389B2, “Peptides and combinations of peptides for use in immunotherapy against lung cancer, including NSCLC and other cancers” (Immatics Biotechnologies GmbH, priority 2015, dated 2020)
